Laboratory results: US10501479B2, “Benzenesulfonyl-asymmetric ureas and medical uses thereof” (HELSINN HEALTHCARE SA, priority 2016, dated 2019)
Like-named read-outs stand apart in the source and are kept apart here.

Legend:
[1] = biological target: T1, recombinant human ghrelin receptor (HEK293/GRLN) (Homo sapiens, UniProt Q92847); test: Ghrelin inverse agonist potency (EC50) with IP-1 (IP-One HTRF) assay; assay type: cell-based; settings: IP-1 assay
T1 construct: expressed in transfected cells
Method in brief: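 IP-1 accumulation was measured by HTRF (IP1-d2/Tb-cryptate, 620/665 nm read after 1 hour at room temperature) following 1 hour of compound treatment at 37° C. Cells were HEK293 stably expressing human ghrelin receptor, plated a day earlier on Matrigel. Inverse agonist potency was reported as EC50.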

[2] = biological target: T2, GHSR-1a (HEK293/GHSR1a cell line) (Homo sapiens, UniProt Q92847); test: Ghrelin agonist potency (EC50) with calcium FLIPR assay; assay type: cell-based
T2 construct: expressed in transfected cells; host or cells: HEK293/GHSR1a cell line
Method in brief: (§1)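 In this assay, compound alone assesses agonism, while compound co-added with ghrelin at 10 nM assesses antagonism. In both modes the calcium-dye signal is tracked for 2 min from t=20 sec.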

[3] = biological target: T2, GHSR-1a (HEK293/GHSR1a cell line); test: Ghrelin antagonist potency (IC50) with calcium FLIPR assay, ghrelin 10 nM; assay type: cell-based
Method in brief: as §1

[4] = Metabolic stability in human liver microsomes; assay type: in vitro ADME
Method in brief: (§2)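 Loss of parent over time in microsomal incubations at 37 °C with NADPH regeneration, sampled up to 90 min and read by LC-MS/MS.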

[5] = Metabolic stability in mouse liver microsomes; assay type: in vitro ADME
Method in brief: as §2

[6] = ghrelin inverse agonist potency, read-out: Activity EC50
[7] = ghrelin agonist potency, read-out: Activity EC50/EMax
[8] = ghrelin antagonist potency, read-out: Activity IC50
[9] = HEK293/GRLN, read-out: Activity EC50 (ghrelin inverse agonist potency)
[10] = HEK293/GHSR1a, read-out: Activity EC50/EMax: EC50 (ghrelin agonist potency)
[11] = HEK293/GHSR1a, ghrelin 10 nM, read-out: Activity IC50 (ghrelin antagonist potency)

T2 sequence (Q92847 whole entry): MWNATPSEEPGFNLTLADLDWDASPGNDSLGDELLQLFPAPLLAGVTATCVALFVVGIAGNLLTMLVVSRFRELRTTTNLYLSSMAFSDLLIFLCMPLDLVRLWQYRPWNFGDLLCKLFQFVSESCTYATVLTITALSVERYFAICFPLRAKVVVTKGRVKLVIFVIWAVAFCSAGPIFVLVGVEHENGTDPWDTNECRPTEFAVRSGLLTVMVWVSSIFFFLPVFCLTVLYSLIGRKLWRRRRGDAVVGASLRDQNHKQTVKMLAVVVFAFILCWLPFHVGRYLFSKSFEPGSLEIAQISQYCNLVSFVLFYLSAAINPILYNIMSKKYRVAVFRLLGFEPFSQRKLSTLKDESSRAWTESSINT
T1 sequence (Q92847 whole entry): as above

| SMILES | EC50 [1, 6] [µM] | EC50 [2, 7] [µM] | IC50 [3, 8] [µM] | Metabolic Stability Study H = human [4] [µL/min/mg] | Metabolic Stability Study M = mouse [5] [µL/min/mg] | EC50 [1, 9] [µM] | EC50 [2, 10] [µM] | IC50 [3, 11] [µM] |
| --- | --- | --- | --- | --- | --- | --- | --- | --- |
| COC(=O)c1cc(NC(=O)NC(C)c2ccccc2)ccc1S(=O)(=O)Cc1ccc2c(c1)CNC2 (stereo not drawn) [H1505, methyl 2-((isoindolin-5-ylmethyl)sulfonyl)-5-(3-(1-phenylethyl)ureido)benzoate] | 0.0117 | > 30 | 0.00828 | 37.3 | 135.5 | – | – | – |
| COc1cccc(F)c1C(C)NC(=O)Nc1ccc(S(=O)(=O)Cc2ccc3c(c2)CN(C)C3)cc1 (stereo not drawn) [H1454, 1-(1-(2-fluoro-6-methoxyphenyl)ethyl)-3-(4-(((2-methylisoindolin-5-yl)methyl)sulfonyl)phenyl)urea] | – | – | – | 259.9 | 193.3 | 0.0061 | > 30 | 0.0318 |
| CC(NC(=O)Nc1ccc(S(=O)(=O)Nc2ccc3c(c2)CCN(C)C3)cc1)c1ccccc1F (stereo not drawn) [H1347, 4-(3-(1-(2-fluorophenyl)ethyl)ureido)-N-(2-methyl-1,2,3,4-tetrahydroisoquinolin-6-yl)benzenesulfonamide] | – | – | – | 59.9 | 58.1 | 0.00795 | > 30 | 0.0262 |
| CC(NC(=O)Nc1ccc(S(=O)(=O)Cc2ccc3c(c2)CCN(C)C3)cc1)c1ccccc1F (stereo not drawn) [H1342, 1-(1-(2-fluorophenyl)ethyl)-3-(4-(((2-methyl-1,2,3,4-tetrahydroisoquinolin-6-yl)methyl)sulfonyl)phenyl)urea] | – | – | – | 80.1 | 118.4 | 0.0079 | > 30 | 0.0174 |
| COc1cc(NC(=O)N(O)C(C)c2ccccc2)ccc1S(=O)(=O)Cc1ccc2c(c1)CN(C)C2 (stereo not drawn) [H1516, 1-hydroxy-3-(3-methoxy-4-(((2-methylisoindolin-5-yl)methyl)sulfonyl)phenyl)-1-(1-phenylethyl)urea] | 0.0113 | > 30 | 0.0335 | 65.2 | 35.1 | – | – | – |
| CC(NC(=O)Nc1ccc(S(=O)(=O)Cc2ccc3c(c2)CN(C)C3)cc1)c1cccc(Cl)c1 (stereo not drawn) [H1266, 1-(1-(3-chlorophenyl)ethyl)-3-(4-(((2-methylisoindolin-5-yl)methyl)sulfonyl)phenyl)urea] | – | – | – | 169.4 | 106.1 | 0.0191 | > 30 | 0.0242 |
| C[C@@H](NC(=O)Nc1ccc(S(=O)(=O)Nc2ccc3c(c2)CN(C)C3)cc1)c1ccccc1 [H1337, (R)-N-(2-methylisoindolin-5-yl)-4-(3-(1-phenylethyl)ureido) benzenesulfonamide] | – | – | – | 58.6 | 39.2 | 0.0105 | > 30 | 0.0241 |
| Cc1cc(S(=O)(=O)Cc2ccc3c(c2)CN(C)C3)ccc1NC(=O)NC(C)c1ccccc1 (stereo not drawn) [H1447, 1-(2-methyl-4-(((2-methylisoindolin-5-yl)methyl)sulfonyl)phenyl)-3-(1-phenylethyl)urea] | – | – | – | 72.5 | 42.6 | 0.0065 | > 30 | 0.1 |
| COc1cc(S(=O)(=O)Cc2ccc3c(c2)CCN(C)C3)ccc1NC(=O)NC(C)c1ccccc1 (stereo not drawn) [H1387, 1-(2-methoxy-4-(((2-methyl-1,2,3,4-tetrahydroisoquinolin-6-yl)methyl)sulfonyl)phenyl)-3-(1-phenylethyl)urea] | – | – | – | 86.7 | 167.5 | 0.0037 | > 30 | 0.0074 |
| COc1cc(S(=O)(=O)Cc2ccc3c(c2)CCNC3)ccc1NC(=O)N[C@@H](C)c1cccc(Cl)c1Cl [H1482, (S)-1-(1-(2,3-dichlorophenyl)ethyl)-3-(2-methoxy-4-(((1,2,3,4-tetrahydroisoquinolin-6-yl)methyl)sulfonyl)phenyl)urea] | 0.0004 | > 30 | 0.000282 | < 10 | 12.5 | – | – | – |
| CC(NC(=O)Nc1ccc(S(=O)(=O)Cc2ccc3c(c2)CN(C2CCOC2)C3)cc1)c1ccccc1.O=C(O)C(F)(F)F (stereo not drawn) [H1340, 1-(1-phenylethyl)-3-(4-(((2-(tetrahydrofuran-3-yl)isoindolin-5-yl)methyl)sulfonyl)phenyl)urea] | – | – | – | 282.4 | > 500 | 0.0033 | > 30 | 0.0047 |
| CC(NC(=O)Nc1ccc(S(=O)(=O)Cc2ccc3c(c2)CCN(C)C3)cc1)c1cccc(F)c1F (stereo not drawn) [H1345, 1-(1-(2,3-difluorophenyl)ethyl)-3-(4-(((2-methyl-1,2,3,4-tetrahydroisoquinolin-6-yl)methyl)sulfonyl)phenyl)urea] | – | – | – | 86.5 | 166.2 | 0.0042 | > 30 | 0.0052 |
| C[C@@H](NC(=O)Nc1ccc(S(=O)(=O)Cc2ccc3c(c2F)CNC3)cc1)c1ccccc1 [H1396, (R)-1-(4-(((4-fluoroisoindolin-5-yl)methyl)sulfonyl)phenyl)-3-(1-phenylethyl)urea] | – | – | – | 62.5 | 330.4 | 0.0013 | > 30 | 0.0108 |
| C[C@@H](NC(=O)Nc1ccc(S(=O)(=O)Nc2ccnc(N)n2)cc1)c1cccc(Cl)c1Cl [H1364, (R)-N-(2-aminopyrimidin-4-yl)-4-(3-(1-(2,3-dichlorophenyl)ethyl)ureido) benzenesulfonamide] | – | – | – | < 10 | 36 | 0.13 | > 30 | 0.0296 |
| CC(NC(=O)Nc1ccc(S(=O)(=O)Cc2ccc(CN3CCCC3)cc2)cc1)c1ccccc1 (stereo not drawn) [H1276, 1-(1-phenylethyl)-3-(4-((4-(pyrrolidin-1-ylmethyl)benzyl)sulfonyl)phenyl)urea] | – | – | – | 109.7 | 247 | 0.0234 | > 30 | 0.076 |
| COc1cc(S(=O)(=O)Cc2ccc3c(c2)CN(C)C3)ccc1NC(=O)NC(C)c1cccc(Cl)c1Cl (stereo not drawn) [H1427, 1-(1-(2,3-dichlorophenyl)ethyl)-3-(2-methoxy-4-(((2-methylisoindolin-5-yl)methyl)sulfonyl)phenyl)urea] | – | – | – | 58.8 | 82.1 | 0.0007 | > 30 | 0.0038 |
| COc1cc(S(=O)(=O)Cc2ccc3c(c2)CCN(C)C3)ccc1NC(=O)NC(C)c1cccc(Cl)c1Cl (stereo not drawn) [H1428, 1-(1-(2,3-dichlorophenyl)ethyl)-3-(2-methoxy-4-(((2-methyl-1,2,3,4-tetrahydroisoquinolin-6-yl)methyl)sulfonyl)phenyl)urea] | – | – | – | 69.3 | 194.8 | 0.0005 | > 30 | 0.0033 |
| CC(NC(=O)Nc1ccc(S(=O)(=O)Cc2ccc3c(c2)CN(C)C3)cc1)c1cc(F)cc(F)c1 (stereo not drawn) [H1446, 1-(1-(3,5-difluorophenyl)ethyl)-3-(4-(((2-methylisoindolin-5-yl)methyl)sulfonyl)phenyl)urea] | – | – | – | 177.6 | 58.5 | 0.009 | > 30 | 0.0965 |
